In patent US10792328B2, “Nanocomplexes for delivery of saporin” (Trustees of Tufts College, priority 2013, dated 2020):

Key:
MDA-MB-231 cancer cells = assay: In vitro protein transfection (saporin delivery), cell viability by Alamar Blue assay; format: cell-based; conditions: MDA-MB-231 cells, under all four studied conditions
Experimental: Compositions 1-32 were tested for delivery of saporin into cells MDA-MB-231.
The two cells lines were purchased from ATCC (Manassas, Va.) and cultured in Dulbecco's Modified Eagle Medium (“DMEM”) supplemented with 10% Fetal Bovine Serum (“FBS”) and 1% penicillin/streptomycin at 37° C. in the presence of 5% CO2. For the protein transfection assay described below, cells were seeded in 96-well plates at a density of 10,000 cells per well a day prior to transfection.
To evaluate saporin delivery efficiency, lipid-like compound/saporin nanocomplexes prepared in Examples 19-54 were added to MDA-MB-231 cancer cells and incubated at 37° C. for 24 hours. The saporin concentration was 0.1 μg/250 μL in PBS. The same volume of PBS without any lipid-like compound or saporin was used as a control. The cell viability was determined by the Alamar Blue assay after 24 hours of incubation. All transfection studies were performed in quadruplicate.

4T1-12B breast tumors = assay: In vivo cancer treatment, inhibition of tumor growth; conditions: BALB/c mice bearing 4T1-12B breast tumors, tail-vein injection every three days, 5.5 mg/kg lipid-like compound and 330 μg/kg saporin
Experimental: Composition 33 (i.e., 1-O16B/saporin) and Composition 34 (i.e., 1-O18B/saporin) were tested for in vivo inhibiting tumor growth following the procedure described below. More specifically, BALB/c mice bearing 4T1-12B breast tumors were developed from a 4T1-12B cell suspension in DMEM supplemented with 10% FBS at a concentration of 10^7 cells/ml. An aliquot (100 μl) of the cell suspension was injected into the mammary fat pad of 4-6 week-old female BALB/c mice. The mice were sorted into four groups randomly (n=7 for treatment group, n=5 for control groups) seven days after the injection. The mice were injected through tail-vein every three days. For the treatment group, each mouse was injected with 5.5 mg/kg of 1-O16B or 1-O18B and 330 μg/kg of saporin. Tumor volumes were measured every three days.
PBS without 1-O16B, 1-O18B, and saporin was also injected as a control. Comparative studies were also conducted using saporin in PBS without 1-O16B and 1-O18B.

| Compound | saporin delivery efficiency (MDA-MB-231 cancer cells) | tumor size (4T1-12B breast tumors; Day 16) | tumor size (4T1-12B breast tumors; Day 22) |
| --- | --- | --- | --- |
| CCCCCCCCCCSSCCOC(=O)CCN(C)CCCN(C)CCC(=O)OCCSSCCCCCCCCCC [Composition 80-O14B] | high saporin delivery efficiency | – | – |
| CCCCCCCCCCCCSSCCOC(=O)CCN(C)CCCN(C)CCC(=O)OCCSSCCCCCCCCCCCC [Composition 80-O16B] | high saporin delivery efficiency | – | – |
| CCCCCCCCCCCCCCCCOC(=O)CCN(C)CCCN(C)CCC(=O)OCCCCCCCCCCCCCCCC [Composition 80-O16] | high saporin delivery efficiency | – | – |
| CCCCCCCCCCCCCCSSCCOC(=O)CCN(C)CCCN(C)CCC(=O)OCCSSCCCCCCCCCCCCCC [Composition 80-O18B] | high saporin delivery efficiency | – | – |
| CCCCCCCCCCCCCCCCCCOC(=O)CCN(C)CCCN(C)CCC(=O)OCCCCCCCCCCCCCCCCCC [Composition 80-O18] | high saporin delivery efficiency | – | – |
| CCCCCCCCCCCCSSCCOC(=O)CCN(CCCN(CCO)CCO)CCC(=O)OCCSSCCCCCCCCCCCC [Composition 87-O16B] | high saporin delivery efficiency | – | – |
| saporin | – | more than 120 mm^3 | more than 250 mm^3 |
